Experimental data as given in patent US20230105108A1, “COMPOUNDS FOR THE TREATMENT OF BACTERIAL INFECTIONS AND POTENTIATION OF ANTIBIOTICS” (GEORGIA STATE UNIVERSITY RESEARCH FOUNDATION, INC., priority 2019, published 2023).
Structures can show the parent of a compound that is named as a salt. Where two headings read alike, the source gives them in different places.

How the values were obtained:
Format in all cases: cell-based
[1] = tested on: E. coli (ATCC 25922); assay: MIC determination, sensitization fold and FIC index on E. coli; conditions: for MIC of AB with MD-124: MD-124 concentration 5 μg/ml; for MIC: Escherichia coli; for Sensitization: compound up to 25 μM
Description: Bacteria culture and MICs determination: Gram-negative bacteria were cultured in Mueller Hinton II cation-adjusted broth. Gram-positive bacteria were cultured in LB broth. Mycobacterium smegmatis was cultured in Middlebrook 7H9 Broth. MICs of antibiotics itself were determined by performing two-fold serial dilutions of antibiotics. MICs of antibiotics in the presence of bacterial sensitizers were determined by performing two-fold serial dilutions of antibiotics with or without a constant concentration of bacterial sensitizers. The MICs tests were performed on 96-well plates with a final volume of 200 μl Mueller Hinton II cation-adjusted broth in each well. Each well was inoculated with 5×10^5 CFU/ml bacteria and was incubated for 24 h at 37° C. with continuous shaking of 200 rpm. The bacterial density was then determined by OD600. Bacterial growth %=OD600 of antibiotic treatment group/OD600 of antibiotic non-treatment group. MICs was determined as the concentrations that inhibit more than 90% of bacteria growth.
Sensitization fold determination and FIC index calculations: Sensitization fold=MIC of antibiotic only/MIC of antibiotic with bacterial sensitizer. […] Since the MICs were determined by performing two-fold serial dilutions of antibiotic, so the sensitization fold can is the times of 2.
FIC index between compound a and b was calculated according to the formula below: […]
FIC≤0.5: Synergy; FIC between 0.5 and 1: Additive; FIC between 1 and […]: no interaction; FIC >4: antagonism.
Bacteria strains (as indicated in Table 5B) were cultured with rifampicin at various concentrations in the presence or absence of 10 μM of the indicated compound for 20 h at 37° C. The MIC, sensitization, cytotoxicity, and MIC on mycobacteria were tested according to methods described herein. […] The sensitization activities of compounds on MRSA were tested using rifampicin. The sensitization activities of compounds on E. coli were tested using rifampicin.

[2] = tested on: B. subtilis; assay: MIC determination and sensitization fold on B. subtilis; conditions: for sensitization fold with 5.5 μg/ml DB2560: B. subtilis towards the antibiotic; for MIC: Bacillus subtilis, 24 h, compound alone, read-out: MIC
[3] = Cytotoxicity in H9c2 cells (CCK-8); conditions: rat, H9c2 cells; H9c2 cell line
Description: The cytotoxicity in H9c2 (ATCC®CRL-1446™) cells was also determined. The H9c2 cells were maintained in DMEM (Dulbecco's Modified Eagle's Medium) supplemented with 10% fetal bovine serum (MidSci; S01520HI) and 1% penicillin-streptomycin (Sigma-Aldrich; P4333) at 37° C. with 5% CO2. The H9c2 cells were seeded in 96-well plate one day before the experiment. Different concentrations of di-amidine compounds were added into the H9c2 cells. The cells were then incubated with the compounds for 24 hours at 37° C. with 5% CO2. The cell viability was tested by the CCK-8. Specifically, after 24 hour incubation, 10 μL CCK-8 was added to each well. After 3 hours incubation at 37° C., the absorbance at 450 nm was recorded by a plate reader.

[4] = E. coli towards the antibiotic, MD-124 5 μg/ml
[5] = ATCC25922, 24 h, E. coli (wild type), antibiotic alone, read-out: MIC of AB only
[6] = ATCC25922, 24 h, E. coli, compound alone, read-out: MIC
[7] = E. coli, rifampicin, compound at 25 μM
[8] = B. subtilis, erythromycin, compound at 6 μM
[9] = E. coli, rifampicin, compound at 10 μM
[10] = B. subtilis, erythromycin, compound at 12 μM

Compound	MIC of AB with MD-124 ([1]; E. coli) [ng/mL]	Sensitization fold [1, 4] [fold]	MIC [1, 5] [ng/mL]	CC50 at 24 h [3] [µM]	Sensitization ([1]; E. coli, rifampicin)	MIC [1, 6] [µM]	further results
CC[C@H]1OC(=O)[C@H](C)[C@@H](O[C@H]2C[C@@](C)(OC)[C@@H](O)[C@H](C)O2)[C@H](C)[C@@H](O[C@@H]2O[C@H](C)C[C@H](N(C)C)[C@H]2O)[C@](C)(O)C[C@@H](C)C(=O)[C@H](C)[C@@H](O)[C@]1(C)O [Erythromycin, reference compound]	400	–	–	–	–	–	MIC ([1]; ATCC25922, read-out: MIC of erythromycin in the presence of 10 μg/ml MD-100, wild-type E. coli): 1600 ng/mL; MIC of erythromycin in the absence of DB2560 ([2]; B. subtilis): 0.05 ng/mL; MIC of erythromycin in the presence of DB2560 ([2]; B. subtilis): 0.0015 ng/mL
CO[C@H]1/C=C/O[C@@]2(C)Oc3c(C)c(O)c4c(O)c(c(/C=N/N5CCN(C6CCCC6)CC5)c(O)c4c3C2=O)NC(=O)/C(C)=C\C=C\[C@H](C)[C@H](O)[C@@H](C)[C@@H](O)[C@@H](C)[C@H](OC(C)=O)[C@@H]1C [Rifapentine, reference compound]	800	32	25000	–	–	–	–
Fc1cc(C2=NCCN2)ccc1OCc1cccc(COc2ccc(C3=NCCN3)cc2F)c1F [DB2554, 1,3-Bis {4-(2-imidazolino)-2-fluoro)-phenoxy methyl}-2-fluorobenzene dihydrochloride]	–	–	–	50	No effect up to 25 μM	> 50	–
C[C@@H](O)[C@H]1C(=O)N2C(C(=O)O)=C(S[C@@H]3CN[C@H](C(=O)Nc4cccc(C(=O)O)c4)C3)[C@H](C)[C@H]12 [entrapenem, reference compound]	–	–	–	–	–	–	sensitization fold with 5.5 μg/ml DB2560 [2]: 4 fold
Fc1c(COc2ccc(C3=NCCN3)cc2)cccc1COc1ccc(C2=NCCN2)cc1 [DB2510, 1,3-Bis {(4-(2-imidazolino))-phenoxymethyl}-2-fluorobenzene dihydrochloride]	–	–	–	25	No effect up to 25 μM	> 50	–
N=C(N)c1ccc(OCCCCCCOc2ccc(C(=N)N)cc2)cc1 [DB2362]	–	–	–	25	–	50	Sensitization fold [1, 7]: 8-fold at 25 μM;; Sensitization fold [2, 8]: 4-fold at 6 μM
N=C(N)c1ccc(COc2cc(OCc3ccc(C(=N)N)cc3F)cc(C(F)(F)F)c2)c(F)c1 [MD-127, dihydrochloride]	–	–	–	–	–	100	Sensitization fold [1, 9]: 516-fold at 10 μM
C[C@H]1COc2c(N3CCN(C)CC3)c(F)cc3c(=O)c(C(=O)O)cn1c23 [Levofloxacin, reference compound]	6.2	8	50	–	–	–	–
N[C@@H]1CCCCN(c2c(F)cc3c(=O)c(C(=O)O)cn(C4CC4)c3c2Cl)C1 [Besifloxacin, reference compound]	12.5	8	100	–	–	–	–
N=C(N)c1ccc(OCc2cccc(COc3ccc(C(=N)N)cc3)n2)cc1 [DB2447]	–	–	–	> 100	No effect up to 25 μM	100	Sensitization fold ([2]; B. subtilis, erythromycin, compound at 2 μM): No effect at 2 μM.
Cc1onc(-c2ccccc2Cl)c1C(=O)N[C@@H]1C(=O)N2[C@@H]1SC(C)(C)[C@@H]2C(=O)O [Cloxacillin, reference compound]	75000	>4	> 300000	–	–	–	–
CO[C@H]1/C=C/O[C@@]2(C)Oc3c(C)c(O)c4c(O)c(c5c(nc6cc(C)ccn65)c4c3C2=O)NC(=O)/C(C)=C\C=C\[C@H](C)[C@H](O)[C@@H](C)[C@@H](O)[C@@H](C)[C@H](OC(C)=O)[C@@H]1C [Rifaximin, reference compound]	200	64	12500	–	–	–	–
c1cc(COc2ccc(C3=NCCN3)cc2)cc(COc2ccc(C3=NCCN3)cc2)c1 [DB2538, 1,3-Bis {(4-(2-imidazolino))-phenoxymethyl}-benzene dihydrochloride]	–	–	–	< 12.5	No effect up to 25 μM	> 50	Sensitization fold [2, 10]: 4-fold at 12 μM; MIC ([2]; B. subtilis): > 50 µM
Cc1cc(-c2nc3cc(C(=N)N)ccc3n2C)sc1-c1ccc(OCCCCOc2ccc(C(=N)N)cc2)cc1 [DB2583]	–	–	–	12.5	No effect up to 25 μM	100	Sensitization fold [2, 10]: 16-fold at 12 μM; MIC ([2]; B. subtilis): 25 µM
Cc1ccc(COc2ccc(C(=N)N)cc2)cc1COc1ccc(C(=N)N)cc1 [MD-119, 1,3-Bis {(4-amidino)-phenoxymethyl}-6-methylbenzene dihydrochloride]	–	–	–	–	–	–	Sensitization fold ([1]; E. coli, rifampicin, compound at 12.5 μM): 4-fold at 12.5 μM.; Sensitization fold [1, 7]: 32-fold at 25 μM,; MIC ([1]; ATCC25922, 24 h): 100 µM; Sensitization fold [2, 8]: 16-fold at 6 μM; Sensitization fold [2, 10]: 32-fold at 12 μM,; MIC ([2]; B. subtilis): 25 µM
CC[C@H]1OC(=O)[C@H](C)[C@@H](O[C@H]2C[C@@](C)(OC)[C@@H](O)[C@H](C)O2)[C@H](C)[C@@H](O[C@@H]2O[C@H](C)C[C@H](N(C)C)[C@H]2O)[C@](C)(O)C[C@@H](C)CN(C)[C@H](C)[C@@H](O)[C@]1(C)O [Azithromycin, reference compound]	400	16	6200	–	–	–	–
N=C(N)c1ccc(OCOc2ccc(C(=N)N)cc2)cc1 [DB1824]	–	–	–	> 100	No effect up to 25 μM	> 100	Sensitization fold ([2]; B. subtilis, erythromycin, compound at 12.5 μM): 2-fold at 12.5 μM,; MIC ([2]; B. subtilis): 12.5 µM
polymyxin B nonapeptide [PMBN, reference compound]	–	–	–	–	–	–	Sensitization fold ([1]; E. coli, rifampicin, 20 μg/ml bacterial sensitizer): 16 fold
N=C(N)c1ccc(OCc2cccc(COc3ccc(C(N)=O)cc3)n2)cc1 [DB2449]	–	–	–	> 100	No effect up to 25 μM	> 100	Sensitization ([2]; B. subtilis, erythromycin, compound up to 25 μM): No effect up to 25 μM; MIC ([2]; B. subtilis): > 50 µM
N=C(N)c1ccc(CCc2cc(CCc3ccc(C(=N)N)cc3)cc(C(F)(F)F)c2)cc1 [MD-128, 1,3-Bis {(4-amidino)-phenethyl}-5-trifluoromethylbenzene dihydrochloride]	–	–	–	–	–	–	Sensitization fold [1, 9]: 516-fold at 10 μM; MIC ([1]; ATCC25922, 24 h): 100 µM
COc1cc(C2=NCCN2)ccc1OCc1cccc(COc2ccc(C3=NCCN3)cc2OC)c1F [DB2555, dihydrochloride]	–	–	–	50	No effect up to 25 μM	> 50	–
COc1c(N2C[C@@H]3CCCN[C@@H]3C2)c(F)cc2c(=O)c(C(=O)O)cn(C3CC3)c12 [Moxifloxacin, reference compound]	6.2	8	50	–	–	–	–
COc1cccc(OC)c1C(=O)N[C@@H]1C(=O)N2[C@@H]1SC(C)(C)[C@@H]2C(=O)O [methicillin, reference compound]	–	–	–	–	–	–	sensitization fold with 5.5 μg/ml DB2560 [2]: 4 fold
